Assay results: patent US9187421B2, “Etomidate analogues that do not inhibit adrenocortical steroid synthesis” (THE GENERAL HOSPITAL CORPORATION, priority 2009, dated 2015)
Entries after “also recorded” stand apart in the source; their conditions may differ.

Tests used:
rats [1] = test: Rat adrenocortical suppression (ACTH1-24-stimulated serum corticosterone); settings: IV bolus 2×ED50 (14 mg/kg carboetomidate, 2 mg/kg etomidate), 15 min after ACTH1-24
Experimental: Immediately after weighing and IV catheter placement, dexamethasone (0.2 mg/kg IV; American Regent, Shirley, N.Y.) was administered to each rat to inhibit endogenous adrenocorticotropic hormone (ACTH) release, to suppress baseline corticosterone production, and to inhibit the variable stress response to restraint and handling. […] The concentrations of carboetomidate and etomidate in DMSO were 40 and 5.7 mg/ml, respectively. Immediately after hypnotic or vehicle administration, ACTH1-24 (25 μg/kg; Sigma-Aldrich Chemical Co, St. Louis, Mo.) was given intravenously to stimulate corticosterone production. Fifteen minutes later, a second blood sample was drawn to measure the ACTH1-24-stimulated serum corticosterone concentration. ACTH1-24 was dissolved in 1 mg/ml of deoxygenated water as stock, aliquoted, and frozen (−20° C.); a fresh aliquot was thawed just before each use. Rats in all three groups (carboetomidate, etomidate, and vehicle) received the same volume of DMSO (350 μl/kg).
Blood samples were allowed to clot at room temperature (10-60 min) before centrifugation at 3,500 g for 5 min. Serum was carefully expressed from any resulting superficial fibrin clot using a clean pipette tip before a second centrifugation at 3,500 g for 5 min. After the second centrifugation, the resultant clot-free serum layer was transferred to a fresh vial for a final, high-speed centrifugation (16,000 g, for 5 min) to pellet any contaminating red blood cells or particulates. The serum was transferred to a clean vial and promptly frozen (−20° C.) pending corticosterone measurement. After thawing and heat inactivation of corticosterone-binding globulins (65° C. for 20 min), serum baseline and ACTH1-24-stimulated corticosterone concentrations were quantified using an enzyme-linked immunosorbent assay (Diagnostic Systems Laboratories, Webster, Tex.) and a 96-well plate reader (Molecular Devices, Sunnyvale, Calif.).
Male Sprague Dawley rats were pre-treated with dexamethasone to inhibit endogenous ACTH production and minimize baseline serum corticosterone concentrations. […]

Xenopus laevis tadpoles [2] = settings: literature (Husain et al. 2003); cited from earlier work
humans = settings: literature (Arden et al. 1986); cited from earlier work
[3] = molecular target: T1, human α1β2γ2L GABAA receptors (Homo sapiens, UniProt P14867+P47870); settings: 4 μM etomidate, inventors' previous study; cited from earlier work
T1 construct: expressed in transfected cells; host or cells: Xenopus laevis oocytes injected with mRNA (subunit ratio 1:1:2)

rats [4] = test: Loss of righting reflex in rats after IV bolus; format: in vivo, Sprague-Dawley rats; settings: for anesthetic toxicity in rats: highest doses; for slope of duration of anesthesia versus logarithm of anesthetic dose: time to spontaneous righting; for onset time for LORR / onset time for LORR, range: IV, equihypnotic doses 4×ED50 (28 mg/kg carboetomidate, 4 mg/kg etomidate); for time to LORR after IV bolus (in words): doses sufficient to produce LORR
Experimental: Rats: Rats were briefly restrained in a 3-inch diameter, 9-inch long acrylic chamber with a tail exit port. The desired dose of carboetomidate in dimethyl sulfoxide (DMSO; typically at 40 mg/ml) was injected through a lateral tail vein catheter followed by an approximately 1-ml normal saline flush. After injection, rats were removed from the restraint device and turned supine. […] A stopwatch was used to measure the duration of LORR, which was defined as the time from carboetomidate injection until the animal spontaneously righted itself. The ED50 for LORR on bolus administration was determined from the dose dependence of LORR using the method of Waud.26 Onset time for LORR was determined separately by injecting rats with 28 mg/kg of carboetomidate (40 mg/ml in DMSO) or 4 mg/kg of etomidate (5.7 mg/ml in DMSO) through a lateral tail vein catheter followed by an approximately 1-ml normal saline flush. After injection, rats were immediately removed from the restraint device and repeatedly turned supine until they no longer spontaneously righted. The onset time was defined as the time from injection until LORR occurred.
Etomidate or carboetomidate was administered to Sprague Dawley rats as an IV bolus into their tail veins. […] LORR was defined as the time from drug injection until the animal spontaneously righted itself. The ED50 for LORR upon bolus anesthetic administration was determined from the anesthetic dose-dependence of LORR.

[5] = tested on: critically ill trauma patients; settings: critically ill trauma patients sedated with etomidate vs. benzodiazepines (28%); Watt and Ledingham 1984; cited from earlier work
rats [6] = test: Rat hemodynamics (mean blood pressure); settings: IV; for effect on mean blood pressure relative to DMSO vehicle (FIG. 7B): 14 mg/kg carboetomidate, 2 mg/kg etomidate (2×ED50); for effect on mean blood pressure, comparison of three anesthetics (FIG. 7A): twice ED50 for LORR (8 mg/kg propofol, 2 mg/kg etomidate, 14 mg/kg carboetomidate)
Experimental: Femoral arterial catheters, tunneled between the scapulas, were preimplanted by the vendor (Charles River Laboratories). Animals were fully recovered from the placement procedure on arrival.
On the day of study, after weighing and lateral tail vein IV catheter placement, rats were restrained in the acrylic tube with a tail exit port and allowed to acclimate for approximately 10 to 20 min before data collection. […] All data were acquired and analyzed using LabView Software (version 8.5 for Macintosh OS X; National Instruments).
Carboetomidate (40 mg/ml) dissolved in DMSO, etomidate (5.7 mg/ml) dissolved in DMSO, or DMSO vehicle alone as a control was administered through the tail vein catheter followed by approximately 1-ml normal saline flush.
The average mean blood pressure was calculated at each 30-second epoch during this study period.

[7] = molecular target: T2, etomidate-insensitive mutant α1β2M286Wγ2L GABAA receptors (Homo sapiens, UniProt P14867+P47870, M310W); test: GABAA receptor electrophysiology, etomidate-insensitive mutant receptors in Xenopus oocytes; format: cell-based; settings: 10 μM compound
T2 construct: expressed in transfected cells; host or cells: Xenopus laevis oocytes injected with mRNA (subunit ratio 1:1:2)
Experimental: Stage 4 and 5 oocytes were injected with messenger RNA encoding the α1, β2 (or β2M286W), and γ21 subunits of the human GABAA receptor (˜40 ng of messenger RNA total at a subunit ratio of 1:1:2). This messenger RNA was transcribed from complementary DNA encoding for GABAA receptor α1, β2 (or β2M286W), and γ21 subunits using the mMESSAGE mMACHINE High Yield Capped RNA Transcription Kit (Ambion, Austin, Tex.). Injected oocytes were incubated in ND-96 buffer solution (96 mM NaCl, 2 mM KCl, 1 mM CaCl2, 0.8 mM MgCl2, 10 mM HEPES, pH 7.5) containing 50 U/ml of penicillin and 50 μg/ml of streptomycin at 17° C. for at least 18 h before electrophysiologic experiments.
For each oocyte, the concentration of GABA that produces 5-10% of the maximal current response (EC5-10 GABA) was determined by measuring the peak current responses evoked by a range of GABA concentrations (in ND-96 buffer) and comparing them with the maximal peak current response evoked by 1 mM GABA. […]

Xenopus laevis tadpoles [8] = test: Tadpole loss of righting reflex (LORR) assay; format: in vivo
Experimental: Tadpoles: Groups of five early prelimb-bud stage Xenopus laevis tadpoles were placed in 100 ml of oxygenated water buffered with 2.5 mM Tris HCl buffer (pH. 7.4) and containing a concentration of carboetomidate ranging from 1 to 40[…]. Tadpoles were tipped manually every 5 min with a flame-polished pipette until the response stabilized. […] At the end of each study, tadpoles were returned to fresh water to ensure reversibility of hypnotic action. The EC50 for LORR was determined from the carboetomidate concentration dependence of LORR using the method of Waud D R, J Pharmacol Exp Ther (1972) 183: 577-607, content of which is herein incorporated by reference.
Tadpoles: The tadpole loss of righting reflex assay was used to test for anesthetic activity. Groups of 5 early prelimb-bud stage Xenopus laevis tadpoles were placed in 100 ml of oxygenated water buffered with 2.5 mM Tris HCl buffer (pH=7) and containing a concentration of carboetomidate ranging from 1-40 μM. See Scheme 1, above, for structure of Carboetomidate. Tadpoles were tipped manually every 5 min with a flame polished pipette. […] At all concentrations, this loss of righting reflex response stabilized within 30 min of carboetomidate exposure. At the end of each study, tadpoles were returned to fresh water to ensure reversibility of hypnotic action.

[9] = molecular target: T1, human α1β2γ2L GABAA receptors; test: GABAA receptor electrophysiology, wild-type receptors in Xenopus oocytes (two-electrode voltage clamp); format: cell-based; settings: 10 μM compound
Experimental: Adult female Xenopus laevis frogs were anesthetized with 0.2% tricaine (ethyl-m-aminobenzoate) and hypothermia. Ovary lobes were then excised through a small laparotomy incision and placed in OR-2 solution (82 mM NaCl, 2 mM KCl, 2 mM MgCl2, 5 mM HEPES, pH 7.5) containing collagenase 1A (1 mg/ml) for 3 h to separate oocytes from connective tissue.
Stage 4 and 5 oocytes were injected with messenger RNA encoding the α1, β2 (or β2M286W), and […] subunits of the human GABAA receptor (˜40 ng of messenger RNA total at a subunit ratio of 1:1:2). […]
All electrophysiologic recordings were performed using the whole cell two-electrode voltage-clamp technique. […] Current responses were recorded using Clampex 9.2 software (Axon Instruments) and processed using a Bessel (8-pole) low-pass filter with a cutoff at 50 Hz using Clampfit 9.2 software (Axon Instruments).
For each oocyte, the concentration of GABA that produces 5-10% of the maximal current response (EC5-10 GABA) was determined by measuring the peak current responses evoked by a range of GABA concentrations (in ND-96 buffer) and comparing them with the maximal peak current response evoked by 1 mM GABA. The effect of carboetomidate on EC5-10 GABA-evoked currents was then assessed by first perfusing the oocyte with EC5-10 GABA for 90 s and then measuring the control peak evoked current. […]

T1 sequence (P47870 25-512 limits assumed): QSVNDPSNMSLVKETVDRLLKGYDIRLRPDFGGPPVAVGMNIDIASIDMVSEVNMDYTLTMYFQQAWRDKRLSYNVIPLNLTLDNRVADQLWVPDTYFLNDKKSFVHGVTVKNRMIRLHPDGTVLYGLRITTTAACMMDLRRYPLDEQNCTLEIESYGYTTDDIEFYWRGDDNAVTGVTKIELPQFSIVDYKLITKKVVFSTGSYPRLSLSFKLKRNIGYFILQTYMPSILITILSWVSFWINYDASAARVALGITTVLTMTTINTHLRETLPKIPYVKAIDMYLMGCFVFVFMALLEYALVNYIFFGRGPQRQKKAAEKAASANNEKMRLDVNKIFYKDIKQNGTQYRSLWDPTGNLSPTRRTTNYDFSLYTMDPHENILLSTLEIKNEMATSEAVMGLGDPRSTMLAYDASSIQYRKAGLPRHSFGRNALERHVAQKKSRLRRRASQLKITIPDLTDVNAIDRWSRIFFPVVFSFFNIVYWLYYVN
T1 sequence (P14867 28-456): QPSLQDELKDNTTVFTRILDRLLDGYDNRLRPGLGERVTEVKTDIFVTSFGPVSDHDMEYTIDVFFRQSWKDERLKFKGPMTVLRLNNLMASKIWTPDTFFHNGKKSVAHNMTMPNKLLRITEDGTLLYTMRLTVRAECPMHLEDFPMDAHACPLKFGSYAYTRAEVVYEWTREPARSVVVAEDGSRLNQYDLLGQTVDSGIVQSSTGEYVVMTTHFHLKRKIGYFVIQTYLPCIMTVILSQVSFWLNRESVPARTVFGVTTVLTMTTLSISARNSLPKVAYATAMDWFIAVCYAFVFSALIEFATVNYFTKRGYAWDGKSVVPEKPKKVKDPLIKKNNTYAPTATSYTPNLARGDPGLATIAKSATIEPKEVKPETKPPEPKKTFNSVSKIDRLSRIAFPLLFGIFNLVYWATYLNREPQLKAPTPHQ
T1 sequence (P18507 40-475 partner): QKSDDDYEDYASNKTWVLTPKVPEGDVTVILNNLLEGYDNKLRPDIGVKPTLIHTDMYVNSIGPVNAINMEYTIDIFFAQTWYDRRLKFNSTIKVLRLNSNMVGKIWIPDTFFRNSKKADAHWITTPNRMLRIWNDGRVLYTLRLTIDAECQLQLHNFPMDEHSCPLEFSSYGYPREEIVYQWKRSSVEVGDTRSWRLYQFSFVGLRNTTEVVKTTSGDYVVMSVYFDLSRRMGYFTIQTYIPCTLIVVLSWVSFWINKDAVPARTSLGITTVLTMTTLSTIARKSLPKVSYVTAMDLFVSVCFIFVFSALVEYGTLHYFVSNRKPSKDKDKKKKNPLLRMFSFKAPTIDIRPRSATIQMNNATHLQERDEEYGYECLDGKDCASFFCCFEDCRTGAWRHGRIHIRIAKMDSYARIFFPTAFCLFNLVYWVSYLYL
T2 sequence (P47870 26-512 M310W): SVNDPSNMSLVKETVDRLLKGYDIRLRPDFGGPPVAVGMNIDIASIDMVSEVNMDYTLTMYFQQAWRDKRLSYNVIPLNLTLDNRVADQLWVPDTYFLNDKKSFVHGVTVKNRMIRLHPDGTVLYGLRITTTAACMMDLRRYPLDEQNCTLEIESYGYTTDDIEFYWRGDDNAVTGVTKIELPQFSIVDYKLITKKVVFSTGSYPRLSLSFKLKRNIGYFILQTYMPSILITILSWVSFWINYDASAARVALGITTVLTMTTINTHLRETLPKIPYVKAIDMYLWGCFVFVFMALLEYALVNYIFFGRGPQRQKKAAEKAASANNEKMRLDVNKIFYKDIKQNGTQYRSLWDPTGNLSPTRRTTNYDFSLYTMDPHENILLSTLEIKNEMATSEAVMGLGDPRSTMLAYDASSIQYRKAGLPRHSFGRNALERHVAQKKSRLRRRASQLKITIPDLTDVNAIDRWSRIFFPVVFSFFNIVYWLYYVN
T2 sequence (P14867 28-456): as the sequence (P14867 28-456) above
T2 sequence (P18507 40-475 partner): as the sequence (P18507 40-475 partner) above

Row | Molecule | ACTH1-24-stimulated serum corticosterone concentration versus vehicle (in words) (rats [1]) | anesthetic toxicity in rats (rats [4]; IV bolus) | slope of duration of anesthesia versus logarithm of anesthetic dose (rats [4]; rats, IV bolus) | onset time for LORR (rats [4]; rats) [s] | onset time for LORR, range (rats [4]; rats) [s] | time to LORR after IV bolus (in words) (rats [4]; rats) | effect on mean blood pressure relative to DMSO vehicle (FIG. 7B) (rats [6]) | effect on mean blood pressure, comparison of three anesthetics (FIG. 7A) (rats [6]) | other results
1 | CCOC(=O)c1cncn1C(C)c1ccccc1 (stereo not shown) [etomidate, ethyl 3-(1-phenylethyl)imidazole-4-carboxylate] | significantly reduced | no obvious anesthetic toxicity | 27±7 | 4.5 ± 0.6 | 4 to 5 | within several seconds | significantly reduced mean blood pressure relative to vehicle | magnitude of this decrease was less | concentration inducing loss of righting reflex in tadpoles (Xenopus laevis tadpoles [2]): ~2 µM; concentration inducing loss of responsiveness in humans (humans): ~2 µM; magnitude of potentiation of GABAA receptor currents [3]: 660±240%; ED50 (rats [4]; Rattus norvegicus, rats, IV bolus, read-out: ED50 for LORR following bolus administration): 1 ± 0.03 mg/kg; mortality [5]: 77%
2 | (R)-1-(1-phenylethyl)-1H-pyrrole-2-carboxylate [carboetomidate] | not different from those that had received only vehicle; also recorded: relatively unchanged versus vehicle | no obvious anesthetic toxicity | 16±4 | 33 ± 22 | 10 to 63 | within several seconds | not significantly greater than that of DMSO vehicle alone | magnitude of this decrease was less; also recorded: depresses blood pressure significantly less than propofol or etomidate | effect on amplitude of GABA-evoked currents ([7]; 0.3 μM GABA, mutant M286W): little effect; enhancement of currents mediated by etomidate-insensitive mutant receptors ([7]; EC5-10 GABA): −9±16%; toxicity in tadpoles (Xenopus laevis tadpoles [8]; 1-40 μM, recovery in fresh water): No evidence of toxicity was observed; EC50 (Xenopus laevis tadpoles [8]; LORR, Xenopus laevis tadpoles, quantal method of Waud, read-out: anesthetic EC50 (concentration at which 50% of tadpoles were anesthetized)): 5.4 ± 0.5 µM; time for LORR response to stabilize (Xenopus laevis tadpoles [8]; all concentrations (1-40 μM)): ≤ 30 min; fraction of tadpoles anesthetized (Xenopus laevis tadpoles [8]; highest concentrations, 10-40 μM): all tadpoles were anesthetized; ED50 for LORR following bolus administration (rats [4]; rats, IV bolus): 7 ± 2 mg/kg; enhancement of amplitudes of GABA-evoked currents ([9]; 3 μM GABA, wild-type): 4 fold; enhancement (potentiation) of currents mediated by wild-type receptors ([9]; EC5-10 GABA): 390±80%
3 | CC(C)c1cccc(C(C)C)c1O [propofol, reference compound] | – | – | – | – | – | – | – | mean blood pressure decreased | –
